Source: patent US20050238740A1, “Use of mastic and its components for the control of microbial infections” (priority 2002, published 2005)
In brackets after ≈: the same amount, converted by molar mass. Several values for one entry are separate records, joined by “and”; a condition that tells them apart may be missing. Equal values may be shown once. Read-outs that look alike come from different tables or passages of the source.

Tests used:
Assay in all cases: MTT cytotoxic/cytostatic activity, 48 hours exposure
Type in all cases: cell-based
[1] = tested on: human colon adenocarcinoma HT-29; details: two independent trials, essential oil dissolved in absolute ethanol (Table 11)
Experimental: (§1) Three extracts derived from Pistacia lentiscus var. Chia were tested for their cytotoxic/cytostatic activity against three established cancer cell lines, i.e human mammary adenocarcinoma MCF-7, human colon adenocarcinoma HT-29, and human epidermoid carcinoma A431. A modification of the MTT method (Denizot and Lang, 1986, J Immunol Meth 89, 271) was used for the assessment of cytotoxicity. Briefly, exponentially growing cells were exposed to varying concentrations of the test compounds (or control medium) for 48 hours. Then, the medium was replaced with MTT [3-(4,5-dimethylthiazol-2-yl)-2,5-diphenyltetrazolium bromide] for a further 4 -hour incubation. Finally, the MTT-formazan was solubilized in isopropanol and the optical density was measured at a wavelength of 550 nm and a reference wavelength of 690 nm. A representative example of the semi-log inhibition curves obtained after exposure of A43 1 cells to the three Pistacia lentiscus extracts is illustrated in FIG. 2.
The inhibition curves were used to determine the IC50 of each extract, i.e. the concentration that produced a 50% reduction of the absorbance relative to the absorbance of the control culture. […]

[2] = tested on: human lung carcinoma A549; details: two independent trials, essential oil dissolved in absolute ethanol (Table 11)
[3] = tested on: human epidermoid carcinoma A431; details: for IC50: Homo sapiens, A-431
Experimental: as §1
The inhibition curves were used to determine the IC50 of each extract, i.e. the concentration that produced a 50% reduction of the absorbance relative to the absorbance of the control culture. The average IC50s of each extract for each cell line, after at least three independent trials, are presented in the following table (5-fluorouracil a classical chemotherapeutic agent, was included as a positive control in the case of A431 epidermoid carcinoma cells):
We used the methodology of MTT (see Example 6), using A431 cells. The average IC50s of each compound, after at least three independent trials, are presented in the following table (the data of the previous report regarding A431 cells are included in the table for reasons of comparison):
The neutral extract of the essential oil and two of the isolated ingredients, i.e. isomasticadienolic acid, and oleanonic acid were tested for […] activity using the methodology of MTT (Example 7) and three established human cancer cell lines.

[4] = A431, at least three independent trials (Table 10), read-out: IC50, inhibition of A431 cancer cell proliferation

For `C/C(=C/CC[C@H](C)[C@@H]1CC[C@]2(C)C3=C(CC[C@@]12C)[C@@]1(C)CC[C@H](O)C(C)(C)[C@@H]1CC3)C(=O)O` [Isomasticadienolic, isomasticadienolic acid], the “average IC50” value [1] was 95 (±5) μg/mL, the “average IC50” value [2] was 95 (±5) μg/mL and the “average IC50” value ([3]; Epidermoid carcinoma A431, two independent trials, essential oil dissolved in absolute ethanol (Table 11)) was 25 (±5) μg/mL.

In the case of `CC1(C)CC[C@]2(C(=O)O)CC[C@]3(C)C(=CC[C@@H]4[C@@]5(C)CCC(=O)C(C)(C)[C@@H]5CC[C@]43C)[C@@H]2C1` [oleanonic, oleanonic acid], the IC50 ([1]; Homo sapiens) is reported as 105 mg/L (≈ 231 µM), the IC50 ([2]; Homo sapiens) is reported as 110 mg/L (≈ 242 µM) and the IC50 [3, 4] is reported as 17.5 µg/mL and 38.3 µM. For the same compound, the IC50 ([3]; Epidermoid carcinoma A431, two independent trials, essential oil dissolved in absolute ethanol (Table 11), read-out: average IC50) was 45 mg/L (≈ 99 µM).

With `CC1(C)C=C2[C@H]3CC[C@@H]4[C@@]5(C)CCC(=O)C(C)(C)[C@@H]5CC[C@@]4(C)[C@]3(C)CC[C@@]2(C(=O)O)CC1` [moronic, moronic acid] the IC50 [3, 4] was 47.7 µg/mL and 105 µM.

For `O=c1[nH]cc(F)c(=O)[nH]1` [5-fluorouracil, reference compound], the IC50 [3, 4] was 2.25 µg/mL and 17.3 µM and the IC50 ([3]; Epidermoid carcinoma A431, 48 hours, at least three independent trials (Table 9), read-out: IC50, inhibition of cancer cell proliferation) was 2.25 mg/L (≈ 17.3 µM).
